Where “and” joins values, the source holds several entries; their conditions need not be identical. Identical values can stand only once.
How the values were obtained:
Staphylococcus aureus = experiment: MIC aerobic bacteria, standard agar-dilution assay; format: cell-based
Citrobacter freundii = experiment: MIC aerobic bacteria, standard agar-dilution assay; format: cell-based; conditions: Citrobacter freundii CF17, 24 hours
S. pyogenes [1] = experiment: In vivo oral activity against S. pyogenes in mice
Propionibacterium acnes [2] = experiment: MIC against Propionibacterium acnes strains, 24-hour agar-dilution; format: cell-based
Source text: Antibiotic A41030 factors A, B and C have been tested and found to be active against a genus of anaerobic bacteria identified as Propionibacterium acnes.

Peptococcus prevoti = experiment: MIC anaerobic bacteria, agar-dilution; format: cell-based; conditions: Peptococcus prevoti 1281
[3] = test system: Fusobacterium necrophorum; experiment: MIC anaerobic bacteria, agar-dilution; format: cell-based; conditions: Fusobacterium necrophorum 6054A
Fusobacterium symbiosum = experiment: MIC anaerobic bacteria, agar-dilution; format: cell-based; conditions: Fusobacterium symbiosum 1470
Bacteroides corrodens = experiment: MIC anaerobic bacteria, agar-dilution; format: cell-based; conditions: Bacteroides corrodens 1874
[4] = test system: Bacteroides melaninogenicus; experiment: MIC anaerobic bacteria, agar-dilution; format: cell-based; conditions: Bacteroides melaninogenicus 2736
Salmonella typhi = experiment: MIC aerobic bacteria, standard agar-dilution assay; format: cell-based
[5] = Electrometric titration (pKa); format: physicochemical; conditions: electrometric titration in 66% dimethylformamide in water
Source text: Antibiotic A41030 factor A is a white, crystalline solid.

Solubility in solvents = format: physicochemical; conditions: qualitative
Source text: As many as seven antibiotic factors are recovered from the fermentation and are obtained as a mixture, the A41030 complex. It will be recognized that the ratio of the factors in the A41030 complex will vary, depending upon the fermentation conditions used. The individual factors A, B, C, D, E, F, and G are separated and isolated as individual compounds, as hereinafter described.

Escherichia coli = experiment: MIC aerobic bacteria, standard agar-dilution assay; format: cell-based
Streptococcus pyogenes = experiment: MIC aerobic bacteria, standard agar-dilution assay; format: cell-based; conditions: Streptococcus pyogenes C203, 24 hours
Streptococcus pneumoniae = experiment: MIC aerobic bacteria, standard agar-dilution assay; format: cell-based; conditions: Streptococcus pneumoniae Park I, 24 hours
Serratia marcescens = experiment: MIC aerobic bacteria, standard agar-dilution assay; format: cell-based; conditions: Serratia marcescens X99, 24 hours
[6] = test system: Peptococcus asaccharolyticus; experiment: MIC anaerobic bacteria, agar-dilution; format: cell-based; conditions: Peptococcus asaccharolyticus 1302
Enterobacter cloacae = experiment: MIC aerobic bacteria, standard agar-dilution assay; format: cell-based
Clostridium perfringens = format: cell-based; conditions: Clostridium perfringens 81; agar-dilution
Clostridium septicum = experiment: MIC anaerobic bacteria, agar-dilution; format: cell-based; conditions: Clostridium septicum 1128
[7] = test system: Streptococcus sp. Group D; experiment: MIC aerobic bacteria, standard agar-dilution assay; format: cell-based
Haemophilus influenzae = experiment: MIC aerobic bacteria, standard agar-dilution assay; format: cell-based
Bacteroides vulgatis = experiment: MIC anaerobic bacteria, agar-dilution; format: cell-based; conditions: Bacteroides vulgatis 1211
Propionibacterium acnes [8] = experiment: MIC anaerobic bacteria, agar-dilution; format: cell-based; conditions: Propionibacterium acnes 79; agar-dilution (Table 9)
[9] = test system: Peptostreptococcus anaerobius; experiment: MIC anaerobic bacteria, agar-dilution; format: cell-based; conditions: Peptostreptococcus anaerobius 1428
Staph. aureus = experiment: Experimental bacterial infection in mice, subcutaneous ED50; format: in vivo; conditions: two doses subcutaneously
Experimental: (§1) All of the A41030 factors tested have shown in vivo antimicrobial activity against experimental bacterial infections. When two doses of test compound were administered subcutaneously to mice in illustrative infections, the activity observed is measured as an ED50 value [effective dose in mg./kg. to protect fifty percent of the test animals: See Warren Wick, et al., J. Bacteriol. 81, 233-235 (1961)].

S. pneumoniae = experiment: as above; format: in vivo; conditions: two doses subcutaneously
Experimental: as §1

S. pyogenes [10] = experiment: as above; format: in vivo; conditions: two doses subcutaneously
Experimental: as §1

Clostridium difficile = experiment: MIC anaerobic bacteria, agar-dilution; format: cell-based; conditions: Clostridium difficile 2994; agar-dilution (Table 9)
Bacteroides fragilis = experiment: MIC anaerobic bacteria, agar-dilution; format: cell-based
Enterobacter aerogenes = experiment: MIC aerobic bacteria, standard agar-dilution assay; format: cell-based; conditions: Enterobacter aerogenes C32, 24 hours
Klebsiella pneumoniae = experiment: MIC aerobic bacteria, standard agar-dilution assay; format: cell-based; conditions: Klebsiella pueumoniae X68, 24 hours

## A41030 factor B
Staphylococcus aureus; Staphylococcus aureus S13E, agar-dilution, 24 hours
  MIC: 0.125 µg/mL
Staphylococcus aureus; in µg/mL
  MIC: 0.125 and 0.25
Citrobacter freundii
  MIC: 128 µg/mL
S. pyogenes [1]
  in vivo oral activity: > 300 mg./kg.×2
Propionibacterium acnes [2]; P. acnes strain 44
  MIC: 0.06 µg/mL
Propionibacterium acnes [2]; P. acnes strain 79
  MIC: 0.06 µg/mL
Propionibacterium acnes [2]; P. acnes strain 101
  MIC: 0.06 µg/mL
Propionibacterium acnes [2]; P. acnes strain 103
  MIC: 0.06 µg/mL
Propionibacterium acnes [2]; P. acnes strain 104
  MIC: 0.25 µg/mL
Propionibacterium acnes [2]; P. acnes strain 105
  MIC: 0.06 µg/mL
Propionibacterium acnes [2]; P. acnes strain 106
  MIC: 0.06 µg/mL
Propionibacterium acnes [2]; P. acnes strain 107
  MIC: 0.06 µg/mL
Propionibacterium acnes [2]; P. acnes strain 5170
  MIC: ≤ 0.03 µg/mL
Propionibacterium acnes [2]; P. acnes strain 5176
  MIC: 0.06 µg/mL
Propionibacterium acnes [2]; P. acnes strain 5187
  MIC: 0.06 µg/mL
Propionibacterium acnes [2]; P. acnes strain 5191
  MIC: 0.06 µg/mL
Propionibacterium acnes [2]; P. acnes strain 5197
  MIC: 0.06 µg/mL
Propionibacterium acnes [2]; P. acnes strain 5226
  MIC: 0.5 µg/mL
Propionibacterium acnes [2]; P. acnes strain 5227
  MIC: 0.06 µg/mL
Propionibacterium acnes [2]; P. acnes strain 5228
  MIC: 0.5 µg/mL
Propionibacterium acnes [2]; P. acnes strain 5229
  MIC: 0.25 µg/mL
Propionibacterium acnes [2]; P. acnes strain 5246
  MIC: 0.125 µg/mL
Propionibacterium acnes [2]; P. acnes strain 5292
  MIC: 0.06 µg/mL
Peptococcus prevoti
  MIC: ≤ 0.25 µg/mL
[3]
  MIC: 8 µg/mL
Fusobacterium symbiosum
  MIC: 1.0 µg/mL
Bacteroides corrodens
  MIC: 64 µg/mL
[4]
  MIC: 4 µg/mL
Salmonella typhi; Salmonella typhi 1335, 24 hours
  MIC: > 128 µg/mL
Salmonella typhi; Salmonella typhi X514, 24 hours
  MIC: > 128 µg/mL
[5]
  pKa, first titratable group: about 5.6
  pKa, second titratable group: ~7.5
[5]; stated as possible
  possibly additional pKa's: > 10
Solubility in solvents
  solubility (solvents): soluble in the same solvents as factor A
Escherichia coli; Escherichia coli EC14, 24 hours
  MIC: 128 µg/mL
Escherichia coli; Escherichia coli N10, 24 hours
  MIC: 128 µg/mL
Escherichia coli; Escherichia coli TEM, 24 hours
  MIC: 128 µg/mL
Streptococcus pyogenes
  MIC: 0.25 µg/mL
Streptococcus pneumoniae
  MIC: 0.5 µg/mL
Serratia marcescens
  MIC: 128 µg/mL
[6]
  MIC: ≤ 0.25 µg/mL
Enterobacter cloacae; Enterobacter cloacae 265A, 24 hours
  MIC: 128 µg/mL
Enterobacter cloacae; Enterobacter cloacae EB5, 24 hours
  MIC: 128 µg/mL
Clostridium perfringens
  MIC: 0.5 µg/mL
Clostridium septicum
  MIC: 4 µg/mL
[7]; Streptococcus sp. Group D 9960, 24 hours
  MIC: 1 µg/mL
[7]; Streptococcus sp. Group D X66, 24 hours
  MIC: 1 µg/mL
Haemophilus influenzae; Haemophilus influenzae 251, 24 hours
  MIC: 2 µg/mL
Haemophilus influenzae; Haemophilus influenzae Brun, 24 hours
  MIC: 8 µg/mL
Bacteroides vulgatis
  MIC: 32 µg/mL
Propionibacterium acnes [8]
  MIC: 16 µg/mL
[9]
  MIC: ≤ 0.25 µg/mL
Staph. aureus
  ED50: < 0.43 mg/kg
S. pneumoniae
  ED50: 1.4 mg/kg
S. pyogenes [10]
  ED50: 1.4 mg/kg
Clostridium difficile
  MIC: 32 µg/mL
Bacteroides fragilis; Bacteroides fragilis 111
  MIC: 64 µg/mL
Bacteroides fragilis; Bacteroides fragilis 1877
  MIC: 32 µg/mL
Bacteroides fragilis; Bacteroides fragilis 1936B
  MIC: 32 µg/mL
Enterobacter aerogenes
  MIC: 64 µg/mL
Klebsiella pneumoniae
  MIC: 128 µg/mL
